Entries after “also recorded” stand apart in the source; their conditions may differ. Counter-ions that a name gives are not always drawn.
Key:
[1] = Particular toxicity in grouped mice; conditions: mouse, in vivo, ip
Experimental: The number of dead animals is noted after 1 hour, 2 hours, 3 hours, 4 hours and 24 hours.

[2] = system: nigrostriatal dopaminergic system; assay: Interaction with alpha-methyltyrosine on stereotypies (difference from amphetamine); conditions: α-methyltyrosine (catecholamine synthesis blocked)
mice [3] = assay: Overall behavior and reactivities in mice; type: in vivo, mouse; conditions: dose not stated
Experimental: (§1) In the neuropsychopharmacological study which follows, a solution of CRL 41 153 in distilled water (pH 1.5) was administered intraperitoneally in a volume of 20 ml/kg to male mice and 5 ml/kg to male rats.
(§2) Groups of three animals are observed before and then 0.25 hour, 0.50 hour, 1 hour, 2 hours, 3 hours and 24 hours after the administration of CRL 41 153.

rats [4] = assay: Overall behavior and reactivities in rats; type: in vivo, rat; conditions: dose not stated
Experimental: as §1, §2

mice [5] = assay: Interaction with apomorphine in mice; type: in vivo, mouse; conditions: i.p.
Experimental: Groups of 6 mice receive CRL 41 153 0.5 hour before the subcutaneous injection of 1 or 16 mg/kg of apomorphine.

rats [6] = assay: Interaction with apomorphine in rats; type: in vivo, rat; conditions: i.p.
Experimental: CRL 41 153 is administered to groups of 6 rats 0.5 hour before the subcutaneous injection of 0.5 mg/kg of apomorphine.

rats [7] = assay: Interaction with amphetamine; type: in vivo, rat; conditions: i.p.
Experimental: Amphetamine (2 mg/kg) is injected intraperitoneally into groups of 6 rats 30 minutes after the administration of CRL 41 153. […] 4 mg/kg and 16 mg/kg, CRL 41 153 potentiates the intensity and duration of the stereotypies induced by amphetamine.

mice [8] = assay: Interaction with reserpine; type: in vivo, mouse; conditions: i.p.
Experimental: Four hours after the intraperitoneal injection of 2.5 mg/kg of reserpine, groups of 6 mice receive CRL 41 153.

mice [9] = assay: Interaction with oxotremorine; type: in vivo, mouse; conditions: i.p.
Experimental: CRL 41 153 is administered to groups of 6 mice 0.5 hour before the intraperitoneal injection of 0.5 mg/kg of oxotremorine.

mice [10] = assay: Four plate test, traction and electric shock; type: in vivo, mouse; conditions: i.p.
Experimental: The test is performed on groups of 10 mice 30 minutes after the administration of CRL 41 153.

mice [11] = assay: Spontaneous motility; type: in vivo, mouse; conditions: i.p.
Experimental: 0.5 hour after they have received CRL 41 153, the mice (6 per dose, 12 control animals) are placed in an actimeter, where their motility is recorded for 30 minutes.

mice [12] = assay: Intergroup aggressiveness; type: in vivo, mouse; conditions: i.p.
Experimental: After they have stayed for 3 weeks in the two halves of a cage divided by an opaque partition, groups of 3 mice receive CRL 41 153. Half an hour later, the two groups from the same cage are brought together by removal of the partition, and the number of fights which occur in 10 minutes is noted.

mice [13] = assay: Motility reduced by habituation to the enclosure; type: in vivo, mouse; conditions: i.p.
Experimental: After they have stayed In the actimeters for 18 hours, (he mice (6 per dose, 12 control animals) receive CRL 41 153. They are immediately returned to their respective enclosures and, half an hour later, their motility is recorded for 30 minutes.

mice [14] = assay: Motility reduced by hypoxic aggression; type: in vivo, mouse; conditions: i.p.
Experimental: Half an hour after they have received CRL 41 153, the mice (10 per dose, 20 control animals) are subjected to acute hypobaric anoxia [pressure reduction of 600 mm Hg (i.e. about 8×10^4 Pa) in 90 seconds; release of vacuum in 45 seconds] and are then placed in an actimeter, where their motility is recorded for 10 minutes.

mice [15] = assay: Asphyxiant anoxia (gallamine triiodoethylate); type: in vivo, mouse; conditions: i.p., curarizing agent
Experimental: Groups of 10 mice receive CRL 41 153 half an hour before the intraperitoneal administration of 32 mg/kg of gallamine triiodoethylate (reference curarizing agent).

mice [16] = assay: Interaction with barbital; type: in vivo, mouse; conditions: i.p., barbital 220 mg/kg
Experimental: Half an hour after the administration of CRL 41 153, groups of 10 mice receive an intraperitoneal injection of barbital (220 mg/kg).

mice [17] = assay: Behavioral despair; type: in vivo, mouse; conditions: forcibly immersed mice, i.p.
From the text: Half an hour after they have received CRL 41 153, groups of 6 mice are placed in a beaker filled with water to a height of 6 cm. The total period of immobility between the 2nd and 6th minutes following immersion is noted.

dogs = assay: Cardiovascular study in anesthetized dogs; type: in vivo, dog
Experimental: Two dogs (average weight: 14.1 kg), anesthetized with nembutal, receive CRL 41 194 by intraduodenal administration at successive doses of 0.1 mg/kg, 0.5 mg/kg, 1 mg/kg, 2.5 mg/kg, 5 mg/kg and 10 mg/kg (in solution in physiological solvent).
The blood pressure, the heart rate, the blood flow through the femoral artery, the blood flow through the vertebral artery and the rectal temperature are measured. The coloration of the skin and the coloration of the bile, collected by catheterization of the bile duct after ligature of the cystic duct, are observed.
4 dogs (average weight: 14 kg), anesthetized with nembutal, receive CRL 41 221 by intraduodenal administration at successive doses of 0.1 mg/kg, 0.5 mg/kg, 1 mg/kg, 2.5 mg/kg, 5 mg/kg and 10 mg/kg. The blood pressure, the heart rate, the blood flow through the femoral artery, the blood flow through the vertebral artery and the rectal temperature are measured. The coloration of the skin is observed.

[18] = system: gravid White New Zealand female rabbits; assay: Teratogenicity in gravid White New Zealand rabbits; type: in vivo, rabbit; conditions: day 5 to day 18 of gestation; for Affected foetuses, %: normal limit 1.5%
Summary of the method: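 Fetuses harvested by cesarean on gestation day 29 were scored for number and for any malformation (limb blockade, anury, tail or skull defects, exencephaly).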

[19] = pH of solutions in distilled water; type: physicochemical
Experimental: The neuropsychopharmacological study was undertaken according to the procedures described above for CRL 41 153, CRL 41 213 being adminstered intraperitoneally, in solution in distilled water, in a volume of 20 ml/kg to male mice and a volume of 5 ml/kg to male rats, and the pH of the injected solution varying with the concentration of CRL 41 213 according to the data given in Table II below.

CNS = assay: Neuropsychopharmacological profile as a whole; type: in vivo, mice and rats; conditions: conclusion of the tests
Experimental: as §1

immunity = assay: Immunological study (overall); conditions: in vivo; hydrochloride
[20] = anesthetized dogs, intraduodenal
[21] = dogs, after product, isoprenaline 3 μg/kg
[22] = dogs, after product, norepinephrine 2 μg/kg

CC(N)Cc1ccccc1 (stereo not shown) [amphetamine, reference compound]
selectivity ratio [1]: ~8 | Effect of alpha-methyltyrosine on the stereotypies induced by the substance [2]: totally inhibits the stereotypies induced by amphetamine; also recorded: totally inhibited

CC(C)NC(C)C(=O)c1ccc(N)c(Cl)c1 (stereo not shown) [CRL 41 221, 1-(4-amino-3-chlorophenyl)-2-isopropylaminopropanone hydrochloride]
Stereotype movements (summary) (mice [3]): the presence of stereotype movements in mice and rats | Overall behavior: observed effects (summary) (mice [3]; hydrochloride): excitation with hyperreactivity in mice and rats; also recorded: mydriasis and salivation in mice and rats | Stereotype movements (summary) (rats [4]): the presence of stereotype movements in mice and rats | Overall behavior: observed effects (summary) (rats [4]; hydrochloride): excitation with hyperreactivity in mice and rats; also recorded: mydriasis and salivation in mice and rats | Effect on hypothermia induced by apomorphine (mice [5]): antagonism of the hypothermia | Effect on stereotypies induced by apomorphine (rats [6]): potentiation of the stereotypies | Effect on stereotypies induced by amphetamine (rats [7]): potentiation of the stereotypies | Effect on hypothermia induced by reserpine (mice [8]): antagonism of the hypothermia | Effect on ptosis induced by reserpine (mice [8]): a decrease in the ptosis induced by reserpine | Effect on hypothermic action of oxotremorine (mice [9]): antagonism of the hypothermia | Effect on convulsant effects of electric shock (mice [10]): a reduction in the convulsant effects of electric shock | Number of punished passes in the four plate test (mice [10]): a moderate increase in the number of punished passes in the 4 plate test on mice (at a strong dose) | Spontaneous motor activity (mice [11]): an increase in the spontaneous motor activity of mice | Number of fights / intergroup aggressiveness (mice [12]): a reduction in the aggressiveness | Motor activity of mice accustomed to their enclosure (mice [13]): resumption in the motor activity of mice accustomed to their enclosure | Motor recovery of mice after hypobaric hypoxia (mice [14]): improvement in the motor recovery of mice subjected to acute hypoxia | Time taken for convulsions to occur (mice [15]): a reduction in the aggressiveness and (he time taken for convulsions and death to occur | Time taken for death to occur (mice [15]): a reduction in the aggressiveness and (he time taken for convulsions and death to occur | Duration of the sleep induced by barbital (mice [16]): a reduction in the duration of the sleep induced by barbital | Period of immobility due to despair (mice [17]): a reduction in the period of immobility of mice which have been forcibly immersed | Effect on hypertension induced by norepinephrine (dogs; anesthetized dogs): slightly reduced | Effects of isoprenaline on the blood pressure (dogs; anesthetized dogs): not modified as regards the diastolic blood pressure | Rectal temperature (dogs; anesthetized dogs): the rectal temperature and skin temperature rise gradually | Skin temperature (dogs; anesthetized dogs): the rectal temperature and skin temperature rise gradually | Effects of isoprenaline on the heart rate (dogs; anesthetized dogs, after accumulated dose of 19.1 mg/kg intraduodenal): slightly reduced as regards the heart rate | Blood pressure (dogs; [20]): A reduction in the diastolic blood pressure is observed at 5 mg/kg and hypotension appears at 10 mg/kg | Femoral flow (dogs; [20]): tachycardiac effect as from 2.5 mg/kg, that the femoral flow increases substantially as from this same dose | Heart rate (dogs; [20]): tachycardiac effect as from 2.5 mg/kg | Respiration (dogs; [20]): the respiration is stimulated | Vertebral flow (dogs; [20]): the vertebral flow increases at a dose of 0.5 mg/kg | Effect of propanolol or atenolol on the action of the product (dogs; anesthetized dogs, hydrochloride): The injection of atenolol into 2 dogs reduces the effects of CRL 41 221; also recorded: the injection of propanolol does not increase the β^- effects | Heart rate after isoprenaline (dogs; [21]): 262 beats/minute | Heart rate before isoprenaline (dogs; [21]): 212 beats/minute | Systolic blood pressure after norepinephrine (dogs; [22]): 266 mm Hg | Systolic blood pressure before norepinephrine (dogs; [22]): 158 mm Hg | Vasodilator (conclusion) (dogs; hydrochloride): vasodiating properties; also recorded: consequently a vasodilator | Affected foetuses, number ([18]; 5 mg/kg daily): 1 | Total foetuses (live) ([18]; 5 mg/kg daily): 91 | Affected foetuses, % ([18]; 5 mg/kg daily): 1.11% | Affected foetuses, number ([18]; 10 mg/kg daily): 1 | Total foetuses (live) ([18]; 10 mg/kg daily): 87 | Affected foetuses, % ([18]; 10 mg/kg daily): 1.14% | pH ([19]; 6 g/liter in distilled water): 5.0 | pH ([19]; 13 g/liter in distilled water): 4.5 | pH ([19]; 50 g/liter in distilled water): 4.0 | pH ([19]; ≤3 g/liter in distilled water): 5.5 | Antidepressant effects (overall) (CNS): antidepressant properties | Stimulant effects (overall) (CNS): large stimulant component | α-adrenergic stimulant effects (overall) (CNS): an α-adrenergic stimulation component | Immunological effect (overall) (immunity): immunostimulant or immunomodulating effects; also recorded: has an immunomodulating effect and increases the cellular immunity

— patent US4980377A, “1-(aminophenyl)-2-aminopropanone derivatives” (Laboratoire L. Lafon, priority 1984, dated 1990)
